Results from US10202361B2, “Pyridazinones as herbicides” (E I DU PONT DE NEMOURS AND COMPANY, priority 2014, dated 2019).

Tests used:
Assay in all cases: Test C pre-/postemergence greenhouse herbicide test
Format in all cases: in vivo
soybean (Glycine max) = details: Preemergence; for plant injury at 62 g/ha: 62 g ai/ha; for Plant response rating, Soybean: visual rating on scale 0 (no effect) to 100 (complete control), 13 to 15 d
From the text: (§1) Seeds of plant species selected from blackgrass (Alopecurus myosuroides), bromegrass, downy (downy bromegrass, Bromus tectorum), foxtail, green (green foxtail, Setaria viridis), ryegrass, Italian (Italian ryegrass, Lolium multiflorum), wheat (winter wheat, Triticum aestivum), oat, wild (wild oat, Avena fatua), galium (catchweed bedstraw, Galium aparine), bermudagrass (Cynodon dactylon), surinam grass (Brachiaria decumbens), cocklebur (common cocklebur, Xanthium strumarium), corn (Zea mays), crabgrass, large (large crabgrass, Digitaria sanguinalis), cupgrass, woolly (woolly cupgrass, Eriochloa villosa), foxtail, giant (giant foxtail, Setaria faberii), goosegrass (Eleusine indica), johnsongrass (Sorghum halepense), kochia (Kochia scoparia), lambsquarters (Chenopodium album), morningglory (Ipomoea coccinea), nightshade (eastern black nightshade, Solanum ptycanthum), nutsedge, yellow (yellow nutsedge, Cyperus esculentus), pigweed (Amaranthus retroflexus), ragweed (common ragweed, Ambrosia elatior), soybean (Glycine max), sunflower (common oilseed sunflower, Helianthus annuus), Russian thistle (Salsola kali), barnyardgrass (Echinochloa crus-galli), oilseed rape (Brassica napus), waterhemp (common waterhemp, Amaranthus rudis), and velvetleaf (Abutilon theophrasti) were planted into a blend of loam soil and sand and treated preemergence with test chemicals formulated in a non-phytotoxic solvent mixture which included a surfactant.
(§2) At the same time, plants selected from these crop and weed species and also barley (winter barley, Hordeum vulgare), canarygrass (Phalaris minor), windgrass (Apera spica-venti), deadnettle (henbit deadnettle, Lamium amplexicaule), and chickweed (common chickweed, Stellaria media) were planted in pots containing Redi-Earth® planting medium (Scotts Company, 14111 Scottslawn Road, Marysville, Ohio 43041) comprising spaghnum peat moss, vermiculite, wetting agent and starter nutrients and treated with postemergence applications of test chemicals formulated in the same manner. Plants ranged in height from 2 to 18 cm (1- to 4-leaf stage) for postemergence treatments. Treated plants and controls were maintained in a greenhouse for 13 to 15 d, after which time all species were compared to controls and visually evaluated. Plant response ratings, summarized in Table C, are based on a scale of 0 to 100 where 0 is no effect and 100 is complete control. A dash (-) response means no test result.

[1] = tested on: nutsedge, yellow (yellow nutsedge, Cyperus esculentus); details: Preemergence; for pest or weed control at 31 g/ha: 31 g ai/ha; for pest or weed control at 62 g/ha: 62 g ai/ha; for Plant response rating, Nutsedge, Yellow: visual rating on scale 0 (no effect) to 100 (complete control), 13 to 15 d
From the text: as §1, §2

corn (Zea mays) = details: Preemergence; for Plant response rating, Corn: visual rating on scale 0 (no effect) to 100 (complete control), 13 to 15 d; for plant injury at 31 g/ha: 31 g ai/ha; for plant injury at 62 g/ha: 62 g ai/ha
From the text: as §1, §2

[2] = tested on: ryegrass, Italian (Italian ryegrass, Lolium multiflorum); details: Preemergence; for pest or weed control at 31 g/ha: 31 g ai/ha; for pest or weed control at 62 g/ha: 62 g ai/ha; for Plant response rating, Ryegrass, Italian: visual rating on scale 0 (no effect) to 100 (complete control), 13 to 15 d
From the text: as §1, §2

[3] = tested on: foxtail, giant (giant foxtail, Setaria faberii); details: Preemergence; for Plant response rating, Foxtail, Giant: visual rating on scale 0 (no effect) to 100 (complete control), 13 to 15 d; for pest or weed control at 31 g/ha: 31 g ai/ha; for pest or weed control at 62 g/ha: 62 g ai/ha
From the text: as §1, §2

[4] = tested on: crabgrass, Large (large crabgrass, Digitaria sanguinalis); details: Preemergence; for pest or weed control at 31 g/ha: 31 g ai/ha; for pest or weed control at 62 g/ha: 62 g ai/ha; for Plant response rating, Crabgrass, Large: visual rating on scale 0 (no effect) to 100 (complete control), 13 to 15 d
From the text: as §1, §2

[5] = tested on: velvetleaf (Abutilon theophrasti); details: Preemergence; for pest or weed control at 62 g/ha: 62 g ai/ha; for Plant response rating, Velvetleaf: visual rating on scale 0 (no effect) to 100 (complete control), 13 to 15 d
From the text: as §1, §2

[6] = tested on: waterhemp (common waterhemp, Amaranthus rudis); details: Preemergence; for Plant response rating, Waterhemp: visual rating on scale 0 (no effect) to 100 (complete control), 13 to 15 d; for Plant response rating: Waterhemp
From the text: as §1, §2

[7] = tested on: barnyardgrass (Echinochloa crus-galli); details: Preemergence; for Plant response rating: Barnyardgrass; for Plant response rating, Barnyardgrass: visual rating on scale 0 (no effect) to 100 (complete control), 13 to 15 d
From the text: as §1, §2

[8] = tested on: galium (catchweed bedstraw, Galium aparine); details: Preemergence; for Plant response rating, Galium: visual rating on scale 0 (no effect) to 100 (complete control), 13 to 15 d; for pest or weed control at 31 g/ha: 31 g ai/ha; for pest or weed control at 62 g/ha: 62 g ai/ha
From the text: as §1, §2

[9] = tested on: oilseed rape (Brassica napus); details: Preemergence; for Plant response rating: Oilseed Rape; for Plant response rating, Oilseed Rape: visual rating on scale 0 (no effect) to 100 (complete control), 13 to 15 d
From the text: as §1, §2

[10] = tested on: lambsquarters (Chenopodium album); details: Preemergence
From the text: as §1, §2

[11] = Glycine max, pre-emergence, Soybean, read-out: Plant response rating
[12] = Cyperus, pre-emergence, Nutsedge, Yellow, read-out: Plant response rating
[13] = Zea mays, pre-emergence, Corn, read-out: Plant response rating
[14] = Lolium multiflorum, pre-emergence, Ryegrass, Italian, read-out: Plant response rating
[15] = Setaria faberi, pre-emergence, Foxtail, Giant, read-out: Plant response rating
[16] = Digitaria sanguinalis, pre-emergence, Crabgrass, Large, read-out: Plant response rating
[17] = Abutilon theophrasti, pre-emergence, Velvetleaf, read-out: Plant response rating
[18] = pre-emergence, Galium, read-out: Plant response rating

## CCOc1cc(=O)n(-c2ccc(F)cc2)nc1C(O)c1ccnc(C(F)(F)F)c1 (centres unmarked) [Compound 23, 5-ethoxy-2-(4-fluorophenyl)-6-[hydroxy[2-(trifluoromethyl)-4-pyridinyl]methyl]-3(2H)-pyridazinone]
Soybean (Glycine max); [11]
  plant injury at 62 g/ha: 25%
Soybean (Glycine max); 8 g ai/ha
  Plant response rating, Soybean: 0
Soybean (Glycine max); 16 g ai/ha
  Plant response rating, Soybean: 0
[1]; [12]
  pest or weed control at 31 g/ha: 0%
  pest or weed control at 62 g/ha: 0%
[1]; 8 g ai/ha
  Plant response rating, Nutsedge, Yellow: 0
[1]; 16 g ai/ha
  Plant response rating, Nutsedge, Yellow: 0
Corn (Zea mays); 8 g ai/ha
  Plant response rating, Corn: 0
Corn (Zea mays); 16 g ai/ha
  Plant response rating, Corn: 5
Corn (Zea mays); [13]
  plant injury at 31 g/ha: 5%
  plant injury at 62 g/ha: 15%
[2]; [14]
  pest or weed control at 31 g/ha: 0%
  pest or weed control at 62 g/ha: 5%
[2]; 8 g ai/ha
  Plant response rating, Ryegrass, Italian: 0
[2]; 16 g ai/ha
  Plant response rating, Ryegrass, Italian: 0
[3]; 8 g ai/ha
  Plant response rating, Foxtail, Giant: 5
[3]; 16 g ai/ha
  Plant response rating, Foxtail, Giant: 55
[3]; [15]
  pest or weed control at 31 g/ha: 75%
  pest or weed control at 62 g/ha: 90%
[4]; [16]
  pest or weed control at 31 g/ha: 65%
  pest or weed control at 62 g/ha: 100%
[4]; 8 g ai/ha
  Plant response rating, Crabgrass, Large: 5
[4]; 16 g ai/ha
  Plant response rating, Crabgrass, Large: 50
[5]; [17]
  pest or weed control at 62 g/ha: 100%
[5]; 8 g ai/ha
  Plant response rating, Velvetleaf: 0
[5]; 16 g ai/ha
  Plant response rating, Velvetleaf: 15
[6]; 8 g ai/ha
  Plant response rating, Waterhemp: 85
[6]; 16 g ai/ha
  Plant response rating, Waterhemp: 100
[6]; 62 g ai/ha
  Plant response rating: 100
[7]; 31 g ai/ha
  Plant response rating: 25
[7]; 62 g ai/ha
  Plant response rating: 25
[7]; 8 g ai/ha
  Plant response rating, Barnyardgrass: 0
[7]; 16 g ai/ha
  Plant response rating, Barnyardgrass: 0
[8]; 8 g ai/ha
  Plant response rating, Galium: 85
[8]; 16 g ai/ha
  Plant response rating, Galium: 85
[8]; [18]
  pest or weed control at 31 g/ha: 90%
  pest or weed control at 62 g/ha: 95%
[9]; 31 g ai/ha
  Plant response rating: 80
[9]; 62 g ai/ha
  Plant response rating: 85
[9]; 8 g ai/ha
  Plant response rating, Oilseed Rape: 5
[9]; 16 g ai/ha
  Plant response rating, Oilseed Rape: 5

## CCOc1cc(=O)n(-c2ccc(F)cc2)nc1Cc1ccnc(C(F)(F)F)c1 [Compound 25, 5-ethoxy-2-(4-fluorophenyl)-6-[[2-(trifluoromethyl)-4-pyridinyl]methyl]-3 (2H)-pyridazinone]
Soybean (Glycine max); [11]
  plant injury at 62 g/ha: 20%
Soybean (Glycine max); Glycine max, pre-emergence, Soybean, 125 g ai/ha, read-out: Plant response rating
  plant injury at 125 g/ha: 35%
Soybean (Glycine max); Glycine max, pre-emergence, Soybean, 250 g ai/ha, read-out: Plant response rating
  plant injury at 250 g/ha: 65%
[10]; 31 g ai/ha
  Plant response rating: 100
[10]; 62 g ai/ha
  Plant response rating: 100
[10]; 125 g ai/ha
  Plant response rating: 100
[10]; 250 g ai/ha
  Plant response rating: 100
[1]; [12]
  pest or weed control at 31 g/ha: 10%
  pest or weed control at 62 g/ha: 5%
[1]; Cyperus, pre-emergence, Nutsedge, Yellow, 125 g ai/ha, read-out: Plant response rating
  pest or weed control at 125 g/ha: 15%
[1]; Cyperus, pre-emergence, Nutsedge, Yellow, 250 g ai/ha, read-out: Plant response rating
  pest or weed control at 250 g/ha: 45%
Corn (Zea mays); [13]
  plant injury at 31 g/ha: 10%
  plant injury at 62 g/ha: 30%
Corn (Zea mays); Zea mays, pre-emergence, Corn, 125 g ai/ha, read-out: Plant response rating
  plant injury at 125 g/ha: 35%
Corn (Zea mays); Zea mays, pre-emergence, Corn, 250 g ai/ha, read-out: Plant response rating
  plant injury at 250 g/ha: 45%
[2]; [14]
  pest or weed control at 31 g/ha: 20%
  pest or weed control at 62 g/ha: 40%
[2]; Lolium multiflorum, pre-emergence, Ryegrass, Italian, 125 g ai/ha, read-out: Plant response rating
  pest or weed control at 125 g/ha: 90%
[2]; Lolium multiflorum, pre-emergence, Ryegrass, Italian, 250 g ai/ha, read-out: Plant response rating
  pest or weed control at 250 g/ha: 90%
[3]; [15]
  pest or weed control at 31 g/ha: 100%
  pest or weed control at 62 g/ha: 100%
[3]; Setaria faberi, pre-emergence, Foxtail, Giant, 125 g ai/ha, read-out: Plant response rating
  pest or weed control at 125 g/ha: 100%
[3]; Setaria faberi, pre-emergence, Foxtail, Giant, 250 g ai/ha, read-out: Plant response rating
  pest or weed control at 250 g/ha: 100%
[4]; [16]
  pest or weed control at 31 g/ha: 100%
  pest or weed control at 62 g/ha: 100%
[4]; Digitaria sanguinalis, pre-emergence, Crabgrass, Large, 125 g ai/ha, read-out: Plant response rating
  pest or weed control at 125 g/ha: 100%
[4]; Digitaria sanguinalis, pre-emergence, Crabgrass, Large, 250 g ai/ha, read-out: Plant response rating
  pest or weed control at 250 g/ha: 100%
[5]; [17]
  pest or weed control at 62 g/ha: 100%
[5]; Abutilon theophrasti, pre-emergence, Velvetleaf, 125 g ai/ha, read-out: Plant response rating
  pest or weed control at 125 g/ha: 70%
[5]; Abutilon theophrasti, pre-emergence, Velvetleaf, 250 g ai/ha, read-out: Plant response rating
  pest or weed control at 250 g/ha: 95%
[6]; 62 g ai/ha
  Plant response rating: 100
[6]; 125 g ai/ha
  Plant response rating: 100
[6]; 250 g ai/ha
  Plant response rating: 100
[7]; 31 g ai/ha
  Plant response rating: 35
[7]; 62 g ai/ha
  Plant response rating: 85
[7]; 125 g ai/ha
  Plant response rating: 95
[7]; 250 g ai/ha
  Plant response rating: 98
[8]; [18]
  pest or weed control at 31 g/ha: 85%
  pest or weed control at 62 g/ha: 90%
[8]; pre-emergence, Galium, 125 g ai/ha, read-out: Plant response rating
  pest or weed control at 125 g/ha: 100%
[8]; pre-emergence, Galium, 250 g ai/ha, read-out: Plant response rating
  pest or weed control at 250 g/ha: 100%
[9]; 31 g ai/ha
  Plant response rating: 50
[9]; 62 g ai/ha
  Plant response rating: 95
[9]; 125 g ai/ha
  Plant response rating: 95
[9]; 250 g ai/ha
  Plant response rating: 95
